Key:
[1] = tested on: HMOX1 and GCLC in MEF cells; assay: Western blot of NRF2-dependent proteins in WT and NRF2 KO MEF cells; type: cell-based, mouse; conditions: 10 µM, 8 or 16 h
Description: Cell samples were lysed in ice-cold AKT lysis buffer (137 mM of NaCl, 20 mM of NaF, 10% glycerol, 20 mM of Tris–HCl, 1% Nonidet P-40, 1 μg/mL of leupeptin, 1 mM of phenylmethylsulfonylfluoride, 1 mM of sodium pyrophosphate, and 1 mM of Na3VO4, pH 7.5). Protein quantification was performed using the Pierce BCA Protein Assay Kit (ThermoFisher, Madrid, Spain) following manufacturer’s instructions. Then, 30 μg of protein were resolved by sodium dodecyl sulfate-polyacrylamide gel electrophoresis (SDS-PAGE) and transferred to Immobilon-P polyvinylidene difluoride (PVDF) membranes (Millipore Corp.). Membranes were activated with methanol and blocked with 4% bovine serum albumin (BSA) in Tris-buffered saline-Tween (TTBS: 10 mM of Tris, 150 mM of NaCl; 0.2% Tween-20, pH 7.4) for 2 h. After that, membranes were incubated overnight at 4 °C with the corresponding primary antibodies: anti–HMOX1 (1:1000, ab68477, Abcam, Cambridge, UK), anti-glutamate-cysteine ligase catalytic subunit (GCLC, 1:1000, ab41463, Abcam), anti-β-actin (1:50,000, A3854, Sigma–Aldrich, Madrid, Spain). […] Band intensities from specific proteins were analyzed with Fiji software.

rat striatal slices = assay: Rat striatal slices exposed to 6-OHDA: cell death and ROS production; type: cell-based; conditions: compound 10 µM, 6-OHDA 100 µM, 4 h
Description: Three- to four-month-old Sprague–Dawley rats were decapitated, the brain was removed, and the two brain hemispheres were separated. Each hemisphere was then cut into 300-µm coronal slices using a McIlwain Tissue Chopper (Cavey Laboratory Engineering, Surrey, UK) and separated in a previously oxygenated (95% O2 and 5% CO2) ice-cold Krebs’s dissection buffer (120 mM of NaCl; 2 mM of KCl; 26 mM of NaHCO3; 1.18 mM of KH2PO4; 10 mM of MgSO4; 0.5 mM of CaCl2; 11 mM of glucose; and 200 mM sucrose at pH 7.4) using a Leica SE6 microscope (Leica, Madrid, Spain). Striatum-containing slices were selected and immediately incubated for stabilization in dissection buffer without sucrose, bubbled with 95% O2 and 5% CO2 for 45 min at 34 °C, allowing slices to recover from slicing injury. […] Finally, cell death and the ROS production were measured.
ROS quantification was performed using the fluorescent probe 2,7′-dichlorodihydrofluorescein diacetate (H2DCFDA, λEx/Em = 495/529 nm; Thermo Fisher, Madrid, Spain). Cell death quantification was performed using the fluorescent probe propidium iodide (PI, λEx/Em = 535/617 nm; Thermo Fisher, Madrid, Spain). […] Fluorescence from striatum slices was then recorded for H2DCFDA (λEx/Em = 495/529 nm), PI (λEx/Em = 535/617 nm), and Hoechst (λEx/Em = 350/461 nm), in an inverted Nikon Eclipse T2000-U microscope (Nikon, Tokyo, Japan). […]

In the case of C#CCN(CC#C)CCc1c[nH]c2ccc(OC(=O)C=Cc3ccccc3)cc12 [Compound 14, 3-(2-(Di(prop-2-yn-1-yl)amino)ethyl)-1H-indol-5-yl Cinnamate], the “HMOX1 and GCLC protein levels in NRF2 KO MEF cells” value [1] is reported as “not able to increase”, the “HMOX1 and GCLC protein levels in WT MEF cells” value [1] is reported as “increased” and the “ROS production (H2DCFDA), 6-OHDA model” value (rat striatal slices) is reported as “significantly decreased ROS production”. For the same compound, the “cell death (propidium iodide), 6-OHDA model” value (rat striatal slices) was “significant reduction in cell death”.

From article PMC8868346, “Novel Series of Dual NRF2 Inducers and Selective MAO-B Inhibitors for the Treatment of Parkinson’s Disease” (Antioxidants, 2022)
